The text below walks through data of patent US9809623B2, “α4β7 peptide monomer and dimer antagonists” (Protagonist Therapeutics, Inc., priority 2014, dated 2017).

The term half-life denotes how long it takes for the measured level to halve.

Numbered stars: 1 amine (or outer) side, 2 acyl side, 3 side chain; on linkers, the order of the positions; unused ones are H or OH. Bridge positions count the residues as written; N and C are the ends. Square brackets hold non-standard residues; d marks the D form. Peptide text beside a SMILES is read from it. I, II: the chains in the order shown. 2Nal = N[C@@H](Cc1ccc2ccccc2c1)C(=O)O; Diglycolyl = O=C(COCC(=O)[*:2])[*:1]; NMeR = CN[C@@H](CCCNC(=N)N)C(=O)O; NMeK = CN[C@@H](CCCCN)C(=O)O; Pen = CC(C)(S)[C@H](N)C(=O)O

Series [1] can be described thus: Cysteine/Cystine Redox Stability Assay. The series is classed as physicochemical. The settings on record: Table 4-C; ORP where half of the oxidized peptide remains. The procedure:
Peptides were diluted to 90 μM by adding 4.545 μl of a 10 mM peptide DMSO stock to 495.45 μl of 100 mM Tris-Cl, pH 7.5. Aliquots of […] were transferred to 8 wells down a column of a 96 well plate. 20 μl of 2.5 mM Cystine in 100 mM Tris-Cl, pH 7.5 was added to each well. Cysteine stock solutions in 100 mM Tris-Cl, pH 7.5 were prepared fresh at the following concentrations: 400 mM, 200 mM, 80 mM, 44 mM, 22 mM, 11 mM, 5.5 mM and blank. At time 0, 25 μl of each cysteine stock solution was added to the 55 μl of cystine/peptide solution, and the mixture was incubated at room temperature for 40 min. The samples were quenched by adding 20 μl of 5M acetic acid and analyzed by reverse phase HPLC. The fraction of oxidized peptide was calculated and plotted against the calculated oxidation reduction potential (ORP) as defined by the Nernst equation. The ORP where half of the oxidized peptide remains is shown below.

A short description of another series: Intestinal Wash Assay. In kind it is in vitro ADME. Also on record: dose or concentration left out as unconfirmed. The following applies: rat, rat intestinal wash fluid (small intestine); Table 4-C, t1/2. As for the experimental part:
Intestinal wash assay solution was prepared from rats fasted for at least 6 hours prior. The animals were euthanized and a midline incision was made from the point of the jaw to the pubis. The abdomen and chest were opened by making 2 incisions through the anterior chest wall on either side. Hemostats were used to clamp off both ends of the animal's stomach—where the esophagus meets the stomach and where the stomach meets the duodenum. A hemostat was also used to clamp 2-3 cm down the intestine from where the stomach meets the duodenum.
Intestinal wash assay solution was prepared by separating 20 cm of the small intestine from the body. Once separated 20 cm, the end was clamped with a hemostat and the section cut from the body, leaving the hemostats in place on the removed section. 1 mL of chilled saline was drawn up with a 1 mL syringe. One end of the intestine was held up and the clamp removed. Approximately 2-2.5 cm of the gavage needle was inserted into the intestine, and the saline was slowly injected. The fluid was massaged down the length of the intestine using gloved fingers. The gavage needle was removed and the clamp was replaced on the end of the intestine. The intestine was sat straight and a q-tip was run firmly up and down the length of the outside of the intestine approximately 3-6 times to mix the enzymes with the saline. One end of the intestine was held up and some of the fluid was carefully moved at the top down. The clamp was removed and that end of the intestine was set into a small weigh boat on ice. The other end of the intestine was carefully picked up and held vertically. Gloved fingers were gently run down it to squeeze the fluid into the container. The previous steps saline injection and fluid procurement steps were repeated twice using only 0.5 mL of chilled saline. The sample was pipetted from the weigh boat into a centrifuge tube and placed on ice. All intestinal wash samples were spun down in a cold centrifuge at 12,000×g for 10 minutes. The supernatant from the top of each centrifuged sample was pipetted into cryotubes, and kept on ice until use.
Intestinal wash assays were performed using intestinal wash assay solution prepared as described above. A sufficient amount of rat intestinal wash was thawed. For each sample, 200 uL of rat intestinal wash fluid was pipetted into 1.5 mL Eppendorf tubes (number of tubes for experiment=number of test peptides×N). The tubes were pre-incubated for about 10 minutes in a water bath at 37° C.
Peptide working solutions ([…]) were prepared by combining 2 μl of 10 mM DMSO stock with 128 μl 100 mM Tris pH 7.5.
Peptide quench solvent (50% ACN-50% MeOH-5% Formic Acid)+IS (5 ug/ml; 1 ul of 10 mg/mL IS per 2 mL quench solvent) was prepare and a quench plate prepared and placed on ice. 200 ul of quench solution was added to each well of the quench plate for T=0, 10, 20, 30, 60 and 180 min collection.
For each test sample and a positive control, 30 ul of peptide working solution was added to a tube of intestinal wash fluid. The tube was gently vortexed and 30 ul was immediately removed and quenched in T=0 well of quench plate (pipetted directly into the quench solution). This well was covered tightly to prevent evaporation. 30 ul aliquots were removed at T=10 min, T=20 min, T=30 min, T=60 min, and T=180 min, and quenched. When all time points were collected, the quench plate was centrifuged at 10,000 rpm for 10 minutes. 150 uL of each supernatant was transferred to a polypropylene 96-well collection plate. 300 ul Mobile Phase A was added to each collection, and LC/MS/MS analysis was performed to determine the amount or concentration of peptide remaining in each test sample and positive control.

Another series in a line: Plasma Stability Assay. The settings on record: rat, Table 4-C, t1/2. The series is classed as in vitro ADME. As for the experimental part:
0.5 mL of rat plasma (one tube per peptide, volume depends on how many time points are to be collected, 50 μL per time point) was added to each well of a 96-well polypropylene plate, and the tubes were incubated in a heated water bath, preset to 37° C. with gentle shaking. 1 μL of 10 mM peptide stock solution was added to each tub, and then 200 μL of Acetonitrile w/0.1% Formic Acid was added to each tube (1:4). Samples were collected at the following time points: 0, 10, 30, 45, 60, 120, 180 mins. When all time points were collected, the plate was centrifuged at 5000 rpm for 5 mins. LCM analysis was performed by pipetting 100 μL of each sample to appropriate well of a 96-well deep plate. 100 μL of an internal standard peptide (1 ug/mL) was added in Mobile Phase A to each well. The plate was vortexed and injected

Consider `CC(=O)N[C@@H]1C(=O)N(C)[C@@H](CCCNC(=N)N)C(=O)N[C@@H](CO)C(=O)N[C@@H](CC(=O)O)C(=O)N[C@@H]([C@@H](C)O)C(=O)N[C@@H](CC(C)C)C(=O)N[C@H](C(=O)N[C@@H](Cc2c[nH]c3ccccc23)C(=O)N[C@H](CCCCN)C(N)=O)C(C)(C)SSC1(C)C` [compound 208, Ac-Pen-N-Me-R-S-D-T-L-Pen-W-k-NH2] (Ac-[Pen][NMeR]SDTL[Pen]W[dK]-NH2; disulfide 1-7), for which the “Cys/CySS (mV)” value in series [1] is given as under −300 mV.
On to `CC(=O)N[C@@H]1C(=O)N(C)[C@@H](CCCNC(=N)N)C(=O)N[C@@H](CO)C(=O)N[C@@H](CC(=O)O)C(=O)N[C@@H]([C@@H](C)O)C(=O)N[C@@H](CC(C)C)C(=O)N[C@H](C(=O)N[C@@H](Cc2ccc3ccccc3c2)C(=O)N[C@@H](CCC(=O)O)C(=O)N[C@H](CCCCN)C(N)=O)C(C)(C)SSC1(C)C` [compound 210, Ac-Pen-N-Me-R-S-D-T-L-Pen-2-Nal-E-k-NH2] (Ac-[Pen][NMeR]SDTL[Pen][2Nal]E[dK]-NH2; disulfide 1-7), for which, in series [1], the “Cys/CySS (mV)” value is on record as under −300 mV.
For the molecule `CC(=O)N[C@@H]1C(=O)N(C)[C@@H](CCCNC(=N)N)C(=O)N[C@@H](CO)C(=O)N[C@@H](CC(=O)O)C(=O)N[C@@H]([C@@H](C)O)C(=O)N[C@@H](CC(C)C)C(=O)N[C@H](C(=O)N[C@@H](Cc2c[nH]c3ccccc23)C(=O)N[C@@H](CCC(=O)O)C(=O)N(C)[C@@H](CCCCNC(=O)COCC(=O)NCCCC[C@@H](C(N)=O)N(C)C(=O)[C@H](CCC(=O)O)NC(=O)[C@H](Cc2c[nH]c3ccccc23)NC(=O)[C@H]2NC(=O)[C@H](CC(C)C)NC(=O)[C@H]([C@@H](C)O)NC(=O)[C@H](CC(=O)O)NC(=O)[C@H](CO)NC(=O)[C@H](CCCNC(=N)N)N(C)C(=O)[C@@H](NC(C)=O)C(C)(C)SSC2(C)C)C(N)=O)C(C)(C)SSC1(C)C` [compound 215, [Ac-Pen-(N-Me-Arg)-Ser-Asp-Thr-Leu-Pen-Trp-Glu-(N-Me-Lys)-NH2]2-DIG] (I: Ac-[Pen][NMeR]SDTL[Pen]WE[NMeK]-NH2 / II: Ac-[Pen][NMeR]SDTL[Pen]WE[NMeK]-NH2; disulfide I:1-I:7, II:1-II:7 (inferred); linker I:10-II:10 via Diglycolyl (inferred)), the half-life in the series “Intestinal Wash Assay” is over 6 h. For the same molecule, the half-life at 20 μM in the series “Plasma Stability Assay” was over 6 h.
Regarding `CC(=O)N[C@@H]1C(=O)N(C)[C@@H](CCCNC(=N)N)C(=O)N[C@@H](CO)C(=O)N[C@@H](CC(=O)O)C(=O)N[C@@H]([C@@H](C)O)C(=O)N[C@@H](CC(C)C)C(=O)N[C@H](C(=O)N[C@@H](Cc2c[nH]c3ccccc23)C(=O)N[C@H](CCC(=O)O)C(=O)N[C@H](CCCCNC(=O)COCC(=O)NCCCC[C@@H](NC(=O)[C@@H](CCC(=O)O)NC(=O)[C@H](Cc2c[nH]c3ccccc23)NC(=O)[C@H]2NC(=O)[C@H](CC(C)C)NC(=O)[C@H]([C@@H](C)O)NC(=O)[C@H](CC(=O)O)NC(=O)[C@H](CO)NC(=O)[C@H](CCCNC(=N)N)N(C)C(=O)[C@@H](NC(C)=O)C(C)(C)SSC2(C)C)C(=O)O)C(=O)O)C(C)(C)SSC1(C)C` [compound 216, (Ac-Pen-N-Me-R-S-D-T-L-Pen-W-e-k-OH)2-DIG] (I: Ac-[Pen][NMeR]SDTL[Pen]W[dE][dK]-OH / II: Ac-[Pen][NMeR]SDTL[Pen]W[dE][dK]-OH; disulfide I:1-I:7, II:1-II:7 (inferred); linker I:10-II:10 via Diglycolyl (inferred)), the half-life in the series “Intestinal Wash Assay” is over 6 h. In addition, the half-life at 20 μM in the series “Plasma Stability Assay” is over 3 h.
